In US6656499B1, “Composition for transdermal and dermal administration of interferon-α” (PharmaDerm Laboratories, Ltd., priority 1999, dated 2003):
One block for each compound: values may come before it.

Assays:
[1] = In vitro diffusion of IFN-α into human skin, flow-through diffusion cells, antiviral bioassay of skin homogenate; conditions: Biphasic lipid vesicles + acylated amino acid + IFN-α, 24 hours, n = 4
[2] = guinea pigs, lipid vesicle patch 24 hours, FIG. 1A, vs untreated control animals
2-5A synthetase = 2-5A synthetase enzyme activity in PBMC of treated human subjects; format: in vivo; conditions: all three treatment groups compared to their untreated controls (p<0.05)
Method: The experimental protocol is set forth in Example 5C.
Induction of 2-5A synthetase enzyme activity in peripheral blood mononuclear cells (PBMC) was used as an indication for the systemic delivery of IFN-α from biphasic delivery systems.
2-5A synthetase was determined by a ^125I-2-5A radioimmuno assay kit (Eiken Chemical Corp., Tokyo, Japan) using rabbit anti-human 2-5A antibody and goat antirabbit IgG as secondary antibody. Briefly, 2-5A synthetase was extracted from the samples by poly (I) poly (C) agarose for 10 min. After the addition of ATP solution (24 μg/mL) and incubation, 100 μL ^125I-2-5A was added, followed by the primary and secondary antibody. Radioactivity bound was determined by gamma counting. 2-5A synthetase is measured as pmol 2-5A produced/100 mL/h and subsequently expressed as nmole enzyme/mg protein 1 h in skin homogenate. All samples were run in duplicates.

[3] = tested on: Ki67 nuclear protein in proliferating cells; assay: Anti-proliferation assay on skin sections of human volunteers (Ki67 staining); format: in vivo; conditions: for Average % decrease of proliferative cells stained by anti-Ki67 antibody: 48 hours
Source text: Skin sections were also stained for Ki67 nuclear protein in proliferating cells using anti-M1B1 monoclonal antibodies (Rose et al., J. Clin. Pathol., 47:1010 (1994)) and visualized.
The number of stained cells were counted before and after treatment sections. The decreased number of stained cells were expressed as a percentage.

[4] = Immunohistochemistry of skin biopsies with anti-IFN-α antibodies; format: in vivo, human; conditions: 40 MU group, treated skin site vs untreated skin
Source text: The skin biopsy taken from the site of application of the biphasic lipid vesicle-containing transdermal patch of each test subject was processed for immunohistochemistry. A skin sample from a representative individual in the treatment group receiving 40 MU IFN-α was compared visually to a skin section of control, untreated skin after staining both samples with anti-IFN-α antibodies. […] This staining pattern was characteristic in all volunteers in this treatment group.
Sections 5 μm in thickness were cut and after antigen retrieval with 10 mM Na-citrate the sections were incubated with mouse anti-human interferon alpha antibody (1:2,000-1:5,000), which were in turn treated with a biotinylated rabbit anti-mouse secondary antibody and stained by the Avidin Biotin Complex (ABC) method.

[5] = human, in vivo
Method: The human subjects were divided randomly into three groups for treatment with a transdermal patch containing a lipid vesicle compositions at one of the three IFN-α concentrations. […] After treatment with the placebo, skin biopsies and blood samples were collected from each subject. In Phase II of the study, each subject was treated with a transdermal patch containing IFN-α entrapped in biphasic lipid vesicles at one of the three concentrations: 5 MU/g formulation/patch, 15 MU/g formulation/patch or 40 MU/g formulation/patch. After treatment for 48 hours, skin biopsies and blood samples were taken and analyzed. The biopsy samples were analyzed by immunohistochemistry, antiviral assay, ELISA and 2-5A synthetase assays. The blood samples were used to prepare serum for the antiviral and ELISA assays and to extract peripheral blood mononuclear cells for the 2-5A synthetase assay.
To determine IFN-α concentration in skin homogenates, Cytoscreen™ ELISA kit (Medicorp, Montreal, PQ) was used. The sensitivity of the assay is <25 pg/mL and the range of concentration is 0-500 pg/mL. The assay is specific for human IFN-α with no cross-reactivity with human IFNβ, IFNγ or IFNω. The results are expressed as pg IFN-α/mg skin.
Seventeen human volunteers were randomized into three treatment groups. […]

[6] = Antiviral activity in serum of human subjects after transdermal patch; conditions: individual subjects in each treatment group (5, 15, 40 MU), before vs after 48 hours patch, FIGS. 4A-4C

Compound: CCCCCCCC(=O)N[C@H](C(=O)OC)[C@@H](C)O [PDM1, N-capryloyl-L-threonine methyl ester]
Average Amount of IFN-α in skin [1]: 290 ± 172 U/mg protein

Compound: CCCCCCCCCCCCCCCCCCCC(=O)N[C@@H](CO)C(=O)O [PDM3, N-eicosanoyl-L-serine]
serum antiviral activity / transdermal skin penetration (in words) [2]: significant increase
Average Amount of IFN-α in skin [1]: 2022 ± 1046 U/mg protein

Compound: CCCCCCCCCCCCCCCCCCCC(=O)N[C@H](C(=O)O)[C@@H](C)O [PDM4, N-eicosanoyl threonine]
Average Amount of IFN-α in skin [1]: 1707 ± 538 U/mg protein

Compound: CCCCCCCCCCCCCCCC(=O)N[C@@H](CCCCNC(=O)CCCCCCCCCCC)C(=O)OC [PDM17, Nα-palmitoyl-Nε Lauroyl-L- lysine methyl ester]
Average Amount of IFN-α in skin [1]: 540 ± 239 U/mg protein

Compound: IFN-α
induction in 2-5A synthetase enzyme activity (in words) (2-5A synthetase): significant induction
Average % decrease of proliferative cells stained by anti-Ki67 antibody ([3]; Dose 5 MU, compared to placebo treated skin): 14%
anti-proliferative ratio ([3]; Dose 5 MU, proliferating cells in placebo treated skin / after treatment): 1.21
Average % decrease of proliferative cells stained by anti-Ki67 antibody ([3]; Dose 15 MU, compared to placebo treated skin): 10%
anti-proliferative ratio ([3]; Dose 15 MU, proliferating cells in placebo treated skin / after treatment): 1.32
Average % decrease of proliferative cells stained by anti-Ki67 antibody ([3]; Dose 40 MU, compared to untreated skin): 38%
anti-proliferative ratio ([3]; Dose 40 MU, proliferating cells in untreated skin / after treatment): 2
Ki67 staining of skin sections, anti-proliferative effect (in words) ([3]; skin treated with IFN-α): decreased staining
IFN-α specific immunostaining of skin section (in words) [4]: IFN-α specific immunostaining throughout the stratum corneum, epidermis and dermis
further increase in IFN-α levels in skin homogenates (in words) [5]: No significant further increase
increase in IFN-α levels in post-treatment skin homogenates (ELISA) [5]: 3 fold
serum antiviral activity (in words) [6]: significant increase

Results, then the compound that gave them:

Average Amount of IFN-α in skin [1]: 250 ± 112 U/mg protein
Compound: CCCCCCCCCCCC(=O)NCCCC[C@H](N)C(=O)O [MLL, Lauroyl lysine]

Average Amount of IFN-α in skin [1]: 84 ± 52 U/mg protein
Compound: CCCCCCCCCCCC(=O)NCCCC[C@H](NC(=O)CCCCCCCCCCC)C(=O)OC [PDM18, Nα lauroyl-Nε Lauroyl-L- lysine methyl ester]
